One data set has as its system USA_WA1/2020 SARS CoV-2. Kind of data set: microbe, parasite or virus in culture. As to conditions: Severe acute respiratory syndrome coronavirus 2, Vero C1008, 72 h, read-out: SARS-2 EC50 (μM) VeroE6. The format is cell-based.
For data set [1], the system named is SARS-2.
For the next data set, the system named is Toronto 2 SARS CoV-1. Kind of data set: organism not typed. The data set is classed as cell-based. As to conditions: Vero C1008, 72 h, read-out: SARS-1 EC50 (μM) VeroE6.
A short description of the next data set: in vitro. As to conditions: African green monkey.
For data set [2], the system named is SARS-2. The data set can be described thus: microbe, parasite or virus in culture. The format is cell-based. The following applies: Severe acute respiratory syndrome coronavirus 2, read-out: SARS-2 VU-EC50 (μM) (A549-hACE2).

A word on the EC50: it is the midpoint of the concentration-response curve. As for `O=C(Nc1cccc(C#Cc2ccccn2)c1)c1ccc(NC(=O)C2CC2)cc1` [Compound 8, 4-(Cyclopropanecarboxamido)-N-(3-(pyridin-2-ylethynyl)phenyl)benzamide], the EC50 with USA_WA1/2020 SARS CoV-2 stood at 0.94 µM; with Toronto 2 SARS CoV-1, 0.47 µM; with SARS-2 [2], 1.07 µM. Also, in the data set on SARS-2 [1], the “SARS-2 VU-VTR @ 20 μM (A549-hACE2) (logs)” value was 1.53 logs. In “in vitro”, this molecule gave a CC50 of over 30000 nM.
Regarding `O=C(Nc1cccc(C#Cc2ccccn2)c1)c1ccc(NC(=O)C2CCC2)cc1` [Compound 9, 4-(Cyclobutanecarboxamido)-N-(3-(pyridin-2-ylethynyl)phenyl)benzamide], the EC50 in the data set on USA_WA1/2020 SARS CoV-2 was determined as 0.26 µM; in the data set on Toronto 2 SARS CoV-1, 0.21 µM; in the data set with SARS-2 [2], 0.69 µM. The “SARS-2 VU-VTR @ 20 μM (A549-hACE2) (logs)” value with SARS-2 [1] amounted to 1.88 logs. The molecule also gave a CC50 in “in vitro” of over 30000 nM.
Taken in the same sequence, the figures for `CC(=O)Nc1ccc(C(=O)Nc2cccc(C#Cc3ccccn3)c2)cc1F` [Compound 29, 4-Acetamido-3-fluoro-N-(3-(pyridin-2-ylethynyl)phenyl)benzamide] were 1.07 µM, 0.76 µM, 1.86 µM, 2.6 logs and over 30000 nM.
`CC(C)(C)OC(=O)c1ccc(C(=O)Nc2cccc(C#Cc3ccccn3)c2)cc1` [Compound 44, tert-Butyl 4-((3-(pyridin-2-ylethynyl)phenyl)carbamoyl)benzoate]: the concentration for a half-maximal effect (EC50) with USA_WA1/2020 SARS CoV-2 stood at 0.16 µM; in the data set with Toronto 2 SARS CoV-1 it was 0.07 µM; in the data set on SARS-2 [2], 0.22 µM. Besides, the “SARS-2 VU-VTR @ 20 μM (A549-hACE2) (logs)” value in the data set with SARS-2 [1] worked out at 2.41 logs. In “in vitro”, this molecule showed a CC50 of 24200 nM.
On the same counts, the results for `O=C(Nc1cccc(C#Cc2ccccn2)c1)c1ccc(-c2ccn[nH]2)cc1` [Compound 40, 4-(1H-Pyrazol-5-yl)-N-(3-(pyridin-2-ylethynyl)phenyl)benzamide] are 1 µM, 0.53 µM, 0.81 µM, 3.2 logs and 38600 nM.
For `CC1(C)CN(c2ccc(NC(=O)c3cccc(C#Cc4ccccn4)c3)cc2)C1=O` [Compound 58, N-(4-(3,3-dimethyl-2-oxoazetidin-1-yl)phenyl)-3-(pyridin-2-ylethynyl)benzamide], the EC50 is 0.5 µM in the data set on USA_WA1/2020 SARS CoV-2, 0.3 µM with Toronto 2 SARS CoV-1 and 0.38 µM in the data set with SARS-2 [2]. Moreover, the “SARS-2 VU-VTR @ 20 μM (A549-hACE2) (logs)” value in the data set with SARS-2 [1] came out at 1.93 logs. Also, the CC50 in “in vitro” was over 40000 nM.
As for `CC(=O)Nc1ccc(C(=O)Nc2cccc(C#Cc3ccccn3)c2)cc1` [Compound 5, 4-Acetamido-N-(3-(pyridin-2-ylethynyl)phenyl)benzamide], the results for the half-maximal effective concentration (EC50) in the data set on USA_WA1/2020 SARS CoV-2, in the data set with Toronto 2 SARS CoV-1 and in the data set with SARS-2 [2] were 3.89 µM, 2.14 µM and 3.58 µM, respectively. In addition, the “SARS-2 VU-VTR @ 20 μM (A549-hACE2) (logs)” value in the data set on SARS-2 [1] came to 2.05 logs. In “in vitro”, this molecule registered a CC50 of over 30000 nM.
With `O=C(Nc1cc(C#Cc2ccccn2)cc(OC(F)(F)F)c1)c1ccc(N2CCCCC2=O)cc1` [Compound 50, 4-(2-Oxopiperidin-1-yl)-N-(3-(pyridin-2-ylethynyl)-5-(trifluoromethoxy)phenyl)benzamide], the EC50 in the data set on USA_WA1/2020 SARS CoV-2 came out at 0.18 µM; in the data set with Toronto 2 SARS CoV-1, 0.13 µM; with SARS-2 [2] it was 0.09 µM. In addition, the “SARS-2 VU-VTR @ 20 μM (A549-hACE2) (logs)” value with SARS-2 [1] is given as 2.59 logs. In addition, the CC50 in “in vitro” is over 30000 nM.
Regarding `O=C(Nc1cccc(C#Cc2ccccn2)c1)c1ccc(C(=O)NC2CC2)cc1` [Compound 37, N^1-cyclopropyl-N^4-(3-(pyridin-2-ylethynyl)phenyl)terephthalamide], the EC50 in the data set on USA_WA1/2020 SARS CoV-2 is 4 µM; in the data set on Toronto 2 SARS CoV-1, 2.12 µM. This molecule registered a CC50 in “in vitro” of over 30000 nM.
Taken in the same sequence, the figures for `N#CC1(c2ccc(C(=O)Nc3cccc(C#Cc4ccccn4)c3)cc2)CC1` [Compound 45, 4-(1-Cyanocyclopropyl)-N-(3-(pyridin-2-ylethynyl)phenyl)benzamide] were 3.72 µM, 3.12 µM and 20800 nM.
Turning to `O=C(Nc1cccc(C#Cc2ccccn2)c1)c1ccc(N2CCCOC2=O)cc1` [Compound 18, 4-(2-Oxo-1,3-oxazinan-3-yl)-N-(3-(pyridin-2-ylethynyl)phenyl)benzamide], the EC50 in the data set on USA_WA1/2020 SARS CoV-2 and in the data set on Toronto 2 SARS CoV-1 was over 30 µM throughout. This molecule also gave a CC50 in “in vitro” of over 30000 nM.
With `NC(=O)Nc1ccc(C(=O)Nc2cccc(C#Cc3ccccn3)c2)cc1` [Compound 12, N-(3-(pyridin-2-ylethynyl)phenyl)-4-ureidobenzamide], the EC50 in the data set on USA_WA1/2020 SARS CoV-2 and in the data set on Toronto 2 SARS CoV-1 was over 30 µM each time. The CC50 in “in vitro” is over 30000 nM.
With `O=C(Nc1ccc(NC(=O)N2CCC2)cc1)c1cccc(C#Cc2ccccn2)c1` [Compound 60, N-(4-(3-(pyridin-2-ylethynyl)benzamido)phenyl)azetidine-1-carboxamide], the EC50 in the data set with USA_WA1/2020 SARS CoV-2 is 7.75 µM; in the data set with Toronto 2 SARS CoV-1, 3.93 µM. The molecule further yielded a CC50 in “in vitro” of over 30000 nM.
On the same counts, the results for `CC(=O)Nc1ccc(C(=O)Nc2cccc(C#Cc3ccccn3)c2)nn1` [Compound 31, 6-Acetamido-N-(3-(pyridin-2-ylethynyl)phenyl)pyridazine-3-carboxamide] are over 30 µM, over 30 µM and over 30000 nM.
On the same counts, the results for `CC(=O)N(C)c1ccc(C(=O)Nc2cccc(C#Cc3ccccn3)c2)cc1` [Compound 19, 4-(N-methylacetamido)-N-(3-(pyridin-2-ylethynyl)phenyl)benzamide] are 3.92 µM, 2.19 µM and over 30000 nM.
Taken in the same sequence, the figures for `CCC(=O)Nc1ccc(C(=O)Nc2cccc(C#Cc3ccccn3)c2)cc1` [Compound 6, 4-Propionamido-N-(3-(pyridin-2-ylethynyl)phenyl)benzamide] were 1.01 µM, 0.92 µM and over 30000 nM.
`N#Cc1cc(C#Cc2ccccn2)cc(NC(=O)c2ccc(N3CCCCC3=O)cc2)c1` [Compound 78]: the EC50 turned out to be 1.97 µM in the data set with USA_WA1/2020 SARS CoV-2 and 1.54 µM in the data set with Toronto 2 SARS CoV-1. Besides, the CC50 in the data set “in vitro” is over 30000 nM.
As for `COc1cc(C#Cc2ccccn2)cc(C(=O)Nc2ccc(CC3CC(=O)NC3=O)cc2)c1` (stereo not shown) [Compound 79], the EC50 in the data set with USA_WA1/2020 SARS CoV-2 was 8.19 µM; in the data set on Toronto 2 SARS CoV-1, 4.45 µM. In the data set “in vitro”, this molecule came in with a CC50 of over 30000 nM.
Taken in the same sequence, the figures for `CC(=O)Nc1ccc(-c2nc3ccc(C#Cc4ccccn4)cc3[nH]2)cc1` [Compound 49, N-(4-(5-(Pyridin-2-ylethynyl)-1H-benzo[d]imidazol-2-yl)phenyl)acetamide] were over 30 µM, over 30 µM and over 30000 nM.
As for `CC(=O)Nc1ccc(C(=O)Nc2cccc(C#Cc3ccccn3)c2)cc1O` [Compound 30, 4-Acetamido-3-hydroxy-N-(3-(pyridin-2-ylethynyl)phenyl)benzamide], the figures for the EC50 with USA_WA1/2020 SARS CoV-2 and in the data set with Toronto 2 SARS CoV-1 were 4.37 µM and 6.18 µM, respectively. The molecule further gave a CC50 in the data set “in vitro” of over 30000 nM.
On to `CCN(C(C)=O)c1ccc(NC(=O)c2cccc(C#Cc3ccccn3)c2)cc1` [Compound 56, N-(4-(N-ethylacetamido)phenyl)-3-(pyridin-2-ylethynyl)benzamide], for which the EC50 in the data set on USA_WA1/2020 SARS CoV-2 turned out to be 1.58 µM; with Toronto 2 SARS CoV-1, 1.11 µM. In the data set “in vitro”, the CC50 is over 30000 nM.
Take `CC1(C)CN(c2ccc(C(=O)Nc3cccc(C#Cc4ccccn4)c3)cc2)C1=O` [Compound 21, 4-(3,3-Dimethyl-2-oxoazetidin-1-yl)-N-(3-(pyridin-2-ylethynyl)phenyl)benzamide]: the EC50 in the data set with USA_WA1/2020 SARS CoV-2 worked out at 0.32 µM; in the data set with Toronto 2 SARS CoV-1, 0.52 µM. In the data set “in vitro”, this molecule came in with a CC50 of over 30000 nM.
As for `O=C(Nc1cccc(C#Cc2ccccn2)c1)c1ccc(N2CCCCS2(=O)=O)cc1` [Compound 77], the results for the EC50 with USA_WA1/2020 SARS CoV-2 and in the data set on Toronto 2 SARS CoV-1 were 0.957 µM and 0.791 µM, respectively. Also, the CC50 in the data set “in vitro” is over 30000 nM.
Turning to `CC(=O)Nc1ccc(NC(=O)c2cccc(C#Cc3ccccn3)c2)cn1` [Compound 71, N-(6-acetamidopyridin-3-yl)-3-(pyridin-2-ylethynyl)benzamide], the half-maximal effective concentration (EC50) amounted to 4.13 µM with USA_WA1/2020 SARS CoV-2 and 3.98 µM with Toronto 2 SARS CoV-1. This molecule also gave a CC50 in “in vitro” of over 30000 nM.
On the same counts, the results for `COc1cc(C#Cc2ccccn2)cc(NC(=O)c2ccc3c(c2)CCCC(=O)N3)c1` [Compound 51, N-(3-Methoxy-5-(pyridin-2-ylethynyl)phenyl)-2-oxo-2,3,4,5-tetrahydro-1H-benzo[b]azepine-7-carboxamide] are 0.52 µM, 0.51 µM and 12200 nM.
Taken in the same sequence, the figures for `O=C(Nc1cccc(C#Cc2ccccn2)c1)c1ccc(NC(=O)N2CCOCC2)cc1` [Compound 13, N-(4-((3-(Pyridin-2-ylethynyl)phenyl)carbamoyl)phenyl)morpholine-4-carboxamide] were 8.25 µM, 7.94 µM and over 40000 nM.
`CC1(NC(=O)c2ccc(NC(=O)c3cccc(C#Cc4ccccn4)c3)cc2)CC1` [Compound 61, N-(4-((1-methylcyclopropyl)carbamoyl)phenyl)-3-(pyridin-2-ylethynyl)benzamide]: the half-maximal effective concentration (EC50) with USA_WA1/2020 SARS CoV-2 is 0.71 µM; in the data set with Toronto 2 SARS CoV-1, over 30 µM. The molecule also gave a CC50 in the data set “in vitro” of over 30000 nM.
`O=C1Nc2ccc(C(=O)Nc3cccc(C#Cc4ccccn4)c3)cc2CO1` [Compound 3, Oxo-N-(3-(pyridin-2-ylethynyl)phenyl)-1,4-dihydro-2H-benzo[d][1,3]oxazine-6-carboxamide]: the concentration giving a half-maximal response (EC50) in the data set with USA_WA1/2020 SARS CoV-2 was 11.6 µM; in the data set on Toronto 2 SARS CoV-1, over 30 µM. In the data set “in vitro”, this molecule gave a CC50 of 15800 nM.
Turning to `O=C(Nc1cc(C#Cc2ccccn2)cc(OCC2CC2)c1)c1ccc(N2CCCCC2=O)cc1` [Compound 53, N-(3-(Cyclopropylmethoxy)-5-(pyridin-2-ylethynyl)phenyl)-4-(2-oxopiperidin-1-yl)benzamide], the half-maximal effective concentration (EC50) in the data set with USA_WA1/2020 SARS CoV-2 was found to be 0.18 µM; with Toronto 2 SARS CoV-1, 0.062 µM. The same molecule showed a CC50 in “in vitro” of over 30000 nM.
